Assay results reported in patent publication US20250115598A1 (Anaxis Pharma Pty Ltd, priority 2021, published 2025).

Columns and labels:
endogenous MLKL in MDF = endogenous MLKL in MDF (Mus musculus (Mouse), UniProt Q9D2Y4); experiment: Degradation assay: endogenous MLKL in MDF (western blot); conditions: MDF cells, 24 h incubation with compound, MLKL adjusted for loading with GAPDH, normalized to DMSO only control, read-out: Degradation of endogenous MLKL in MDF (DC50 cell-based assay)
Description: Degradation Assay: Screening Compounds Procedure to Evaluate the Activity of Compounds in Degrading Endogenous MLKL in Human and Mouse Cell
The mouse dermal fibroblast (MDF) cell line was seeded the day before the experiment in a 24-well plate at a cell density of […] per well in a volume of 0.5 mL per well and left to attach overnight. The human monocyte cell line (U937) was seeded on the day of the experiment in a 24-well plate at a cell density of […] per well in a volume of 0.5 mL per well.
The compound was diluted in DMSO with a starting concentration of 10 mM and titrated stepwise with a dilution of 1:5. 0.5 μL of the compound dilution was added to the appropriate well to achieve a final concentration of 10; 2; 0.4; 0.08 and 0.016 μM. A DMSO only well was included as control.
The cells were incubated for 24 h in the presence of the compound at 37° C. and 10% CO2.
After the 24 h incubation period, the medium was removed and cells washed with 0.5 mL PBS. The cells were then lysed directly in 60 μL of 1×SDS gel loading buffer.
The cell lysate was heat-denatured at […] for 10 min. 10 μL of lysate per well were run on 18-well 4-15% Criterion TGX stain free gels (BIO-RAD). The proteins were then transferred onto nitrocellulose membrane with a wet transfer protocol in the Criterion Blotter (BIO-RAD).
Membranes were blocked with 5% skim milk in TBST. Primary antibody against MLKL (clone 3H1, MABC604 Merck) was used at 1:2000 dilution in TBST with 1% BSA and left shaking over night at 4° C. After washes with TBST, the membranes were incubated with goat anti-rat IgG HRP-conjugated antibody (Southern Biotech) in 1% skim milk TBST at 1:10000 dilution for 1 h at room temperature. After TBST washes the bands were imaged on the ChemiDoc MP Imaging System (BIO-RAD) with Immobilion Western Chemiluminescent HRP Substrate Forte (Millipore). The loading control GAPDH was probed for with rabbit anti-GAPDH (CST 14C10) at 1:2000 dilution in 1% BSA TBST over night at 4° C. TBST washes were followed by incubation with goat anti-rabbit IgG HRP-conjugated antibody (Southern Biotech) in 1% skim milk TBST at 1:10000 dilution for 1 h at room temperature followed by TBST washes. The signal was detected as described above.
The band intensity was measured in the ImageLab Software (BIO-RAD) and the MLKL values adjusted for loading with GAPDH. The percentage of degradation was calculated by normalizing the compound treated values to the DMSO only control.

human MLKL (full length) = human MLKL (full length) (Homo sapiens (Human), UniProt Q8NB16); experiment: KINOMEscan binding assay, human MLKL (full length); conditions: hMLKL, Table 25; read-out: MLKL (KD)
In short: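 Tagged kinase + immobilized ligand beads + compound; eluted kinase quantified by qPCR. Kinase source: T7 phage lysate (BL21-derived E. coli, 32 °C) or HEK-293 with DNA tag. 11-pt 3-fold series, 1% DMSO, top 30,000 nM (most). Hill fit, slope −1 → Kd.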

human MLKL (full length), sequence (Q8NB16 whole entry): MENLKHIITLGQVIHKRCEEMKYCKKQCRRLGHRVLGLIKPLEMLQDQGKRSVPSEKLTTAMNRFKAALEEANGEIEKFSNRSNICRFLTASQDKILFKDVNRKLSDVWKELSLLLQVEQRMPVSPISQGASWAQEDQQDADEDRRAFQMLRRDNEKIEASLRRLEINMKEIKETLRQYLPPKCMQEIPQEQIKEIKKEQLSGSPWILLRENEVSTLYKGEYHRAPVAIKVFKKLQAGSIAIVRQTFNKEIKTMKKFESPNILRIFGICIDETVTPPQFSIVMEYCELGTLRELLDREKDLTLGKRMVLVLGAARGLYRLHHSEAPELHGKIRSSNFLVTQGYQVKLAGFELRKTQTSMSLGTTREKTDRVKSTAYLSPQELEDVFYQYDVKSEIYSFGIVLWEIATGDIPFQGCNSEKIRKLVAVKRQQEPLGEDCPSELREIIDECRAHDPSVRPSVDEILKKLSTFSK
endogenous MLKL in MDF, sequence (Q9D2Y4 whole entry): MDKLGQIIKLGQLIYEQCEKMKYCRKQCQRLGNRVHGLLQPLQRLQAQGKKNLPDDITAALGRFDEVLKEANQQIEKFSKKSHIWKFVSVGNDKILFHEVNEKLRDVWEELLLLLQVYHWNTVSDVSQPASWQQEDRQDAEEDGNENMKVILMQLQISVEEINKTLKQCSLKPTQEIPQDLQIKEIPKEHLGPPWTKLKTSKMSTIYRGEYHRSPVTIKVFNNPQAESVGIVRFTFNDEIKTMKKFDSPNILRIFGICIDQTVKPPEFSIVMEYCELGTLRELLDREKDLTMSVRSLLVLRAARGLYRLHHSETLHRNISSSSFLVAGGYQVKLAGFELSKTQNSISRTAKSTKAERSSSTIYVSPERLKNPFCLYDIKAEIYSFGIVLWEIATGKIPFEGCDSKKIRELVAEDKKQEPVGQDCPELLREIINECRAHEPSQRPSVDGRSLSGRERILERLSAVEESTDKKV

SMILES | DC50 (endogenous MLKL in MDF) [nM] | Kd (human MLKL (full length)) [nM]
Cc1ncsc1-c1ccc(CNC(=O)[C@@H]2C[C@@H](O)CN2C(=O)[C@@H](NC(=O)CCCCCCC#Cc2cnc(N)c3c(-c4ccc(NS(=O)(=O)C(F)F)c(O[C@@H](C)c5ccc(F)cc5)c4)nn(C)c23)C(C)(C)C)cc1 [Compound 1027, (2S,4R)-1-[(2S)-2-(9-{4-amino-3-[4-(difluoromethanesulfonamido)-3-[(1S)-1-(4-fluorophenyl)ethoxy]phenyl]-1-methyl-1H-pyrazolo[4,3-c]pyridin-7-yl}non-8-ynamido)-3,3-dimethylbutanoyl]-4-hydroxy-N-{[4-(4-methyl-1,3-thiazol-5-yl)phenyl]methyl}pyrrolidine-2-carboxamide] | 1000 to 10000 | 
Cc1ncsc1-c1ccc(CNC(=O)[C@@H]2C[C@@H](O)CN2C(=O)[C@@H](NC(=O)CCCCCCCCC#Cc2cnc(N)c3c(-c4ccc(NS(=O)(=O)C(F)F)c(O[C@@H](C)c5ccc(F)cc5)c4)nn(C)c23)C(C)(C)C)cc1 [Compound 1028, (2S,4R)-1-[(2S)-2-(11-{4-amino-3-[4-(difluoromethanesulfonamido)-3-[(1S)-1-(4-fluorophenyl)ethoxy]phenyl]-1-methyl-1H-pyrazolo[4,3-c]pyridin-7-yl}undec-10-ynamido)-3,3-dimethylbutanoyl]-4-hydroxy-N-{[4-(4-methyl-1,3-thiazol-5-yl)phenyl]methyl}pyrrolidine-2-carboxamide] | 1000 to 10000 | 
Cc1ncsc1-c1ccc(CNC(=O)[C@@H]2C[C@@H](O)CN2C(=O)[C@@H](NC(=O)c2cccc(OCCn3cc(-c4cnc(N)c5c(-c6ccc(NS(=O)(=O)C(F)F)c(O[C@@H](C)c7ccc(F)cc7)c6)nn(C)c45)cn3)c2)C(C)(C)C)cc1 [Compound 1039, (2S,4R)-1-[(2S)-2-({3-[2-(4-{4-amino-3-[4-(difluoromethanesulfonamido)-3-[(1S)-1-(4-fluorophenyl)ethoxy]phenyl]-1-methyl-1H-pyrazolo[4,3-c]pyridin-7-yl}-1H-pyrazol-1-yl)ethoxy]phenyl}formamido)-3,3-dimethylbutanoyl]-4-hydroxy-N-{[4-(4-methyl-1,3-thiazol-5-yl)phenyl]methyl}pyrrolidine-2-carboxamide] | 1000 to 10000 | 10 to 1000
Cc1ncsc1-c1ccc(CNC(=O)[C@@H]2C[C@@H](O)CN2C(=O)[C@@H](NC(=O)C2(F)CC2)C(C)(C)C)c(OCCCCCCCCn2cc(-c3cnc(N)c4c(-c5ccc(NS(=O)(=O)C(F)F)c(O[C@@H](C)c6ccc(F)cc6)c5)nn(C)c34)cn2)c1 [Compound 1045, (2S,4R)-N-[(2-{[8-(4-{4-amino-3-[4-(difluoromethanesulfonamido)-3-[(1S)-1-(4-fluorophenyl)ethoxy]phenyl]-1-methyl-1H-pyrazolo[4,3-c]pyridin-7-yl}-1H-pyrazol-1-yl)octyl]oxy}-4-(4-methyl-1,3-thiazol-5-yl)phenyl)methyl]-1-[(2S)-2-[(1-fluorocyclopropyl)formamido]-3,3-dimethylbutanoyl]-4-hydroxypyrrolidine-2-carboxamide] | < 1000 | 10 to 1000

Second part, the compound after the results:

DC50 (endogenous MLKL in MDF) [nM] | Kd (human MLKL (full length)) [nM] | SMILES
1000 to 10000 | < 10 | Cn1nc(-c2ccc(NS(=O)(=O)C(F)F)c(F)c2)c2c(N)ncc(-c3cnn(CCCCCCCOc4cccc5c4C(=O)N(C4CCC(=O)NC4=O)C5=O)c3)c21 (centres unmarked) [Compound 1060, N-(4-{4-amino-7-[1-(7-{[2-(2,6-dioxopiperidin-3-yl)-1,3-dioxo-2,3-dihydro-1H-isoindol-4-yl]oxy}heptyl)-1H-pyrazol-4-yl]-1-methyl-1H-pyrazolo[4,3-c]pyridin-3-yl}-2-fluorophenyl)-1,1-difluoromethanesulfonamide]
< 1000 |  | C[C@H](Oc1cc(-c2nn(C)c3c(-c4cnn(CCCCCCCOc5cccc6c5C(=O)N(C5CCC(=O)N(C)C5=O)C6=O)c4)cnc(N)c23)ccc1NS(=O)(=O)C(F)F)c1ccc(F)cc1 (stereo partly drawn) [Compound 1100, N-(4-{4-amino-1-methyl-7-[1-(7-{[2-(1-methyl-2,6-dioxopiperidin-3-yl)-1,3-dioxo-2,3-dihydro-1H-isoindol-4-yl]oxy}heptyl)-1H-pyrazol-4-yl]-1H-pyrazolo[4,3-c]pyridin-3-yl}-2-[(1S)-1-(4-fluorophenyl)ethoxy]phenyl)-1,1-difluoromethanesulfonamide]
< 1000 |  | C[C@H](Oc1cc(-c2nn(C)c3c(-c4cnn(C5CCN(C(=O)[C@]67C[C@](Nc8cccc9c8C(=O)N(C8CCC(=O)NC8=O)C9=O)(C6)C7)CC5)c4)cnc(N)c23)ccc1NS(=O)(=O)C(F)F)c1ccc(F)cc1 (stereo partly drawn) [Compound 1118, N-[4-(4-amino-7-{1-[1-(3-{[2-(2,6-dioxopiperidin-3-yl)-1,3-dioxo-2,3-dihydro-1H-isoindol-4-yl]amino}bicyclo[1.1.1]pentane-1-carbonyl)piperidin-4-yl]-1H-pyrazol-4-yl}-1-methyl-1H-pyrazolo[4,3-c]pyridin-3-yl)-2-[(1S)-1-(4-fluorophenyl)ethoxy]phenyl]-1,1-difluoromethanesulfonamide]
1000 to 10000 |  | C[C@H](Oc1cc(-c2nn(C)c3c(-c4cnn(C5CCN(CCc6cn(CCNc7cccc8c7C(=O)N(C7CCC(=O)NC7=O)C8=O)nn6)CC5)c4)cnc(N)c23)ccc1NS(=O)(=O)C(F)F)c1ccc(F)cc1 (some centres unmarked) [Compound 1135, N-(4-{4-amino-7-[1-(1-{2-[1-(2-{[2-(2,6-dioxopiperidin-3-yl)-1,3-dioxo-2,3-dihydro-1H-isoindol-4-yl]amino}ethyl)-1H-1,2,3-triazol-4-yl]ethyl}piperidin-4-yl)-1H-pyrazol-4-yl]-1-methyl-1H-pyrazolo[4,3-c]pyridin-3-yl}-2-[(1 S)-1-(4-fluorophenyl)ethoxy]phenyl)-1,1-difluoromethanesulfonamide]
